# Data: PMC3481155, “AhR activation underlies the CYP1A autoinduction by A-998679 in rats” (Frontiers in Genetics, 2012)
# Key:
# rat Cyp 3A2 = target: T1, rat Cyp 3A2 (Rattus norvegicus, UniProt P05183); experiment: Recombinant rat Cyp phenotype profiling, 3A2; type: in vitro ADME; settings: 60 min
# T1 construct: purchased BD Gentest; host or cells: baculovirus infected insect cells
# Procedure: (§1) Identification of the drug metabolizing enzymes (DMEs) of A-998679 was studied in cDNA expressed recombinant enzymes prepared from baculovirus infected insect cells over-expressing rat Cyp isoforms (BD Gentest, Woburn, MA) as listed in Table 2. Incubations were conducted in duplicate using Supersomes. The incubation mixture contained 100 pmol/ml of enzymes, except for Cyp1a1 (200 pmol/ml), 0.1 or 0.21 μM of [^3H]A-998679 in 100 mM phosphate buffer (pH 7.4). Reactions were initiated with the addition of NADPH at a final concentration of 1 mM and incubated at 37°C for 60 min. At the end of the incubation period, the incubations were terminated by the addition of acetonitrile/ethanol (50/50, v/v) solution. Insect control samples lacking expressed enzyme were used as negative control. The degree of metabolism of A-998679 was assessed by percent of parent remaining using the radio-HPLC method described below.
# (§2) Radiolabeled components from the above assays were profiled following separation by HPLC with on line radioflow detector. The system consisted of an Agilent 1100 Series quaternary pump and autosampler connected to a Packard 500TR flow scintillation detector. The data were processed using the Radiomatic™ Flo-one® software v3.65. The scintillant (Perkin Elmer FLO-SCINT™ III) flow was maintained at 3 ml/min. […]
# rat Cyp 2D2 = target: T2, rat Cyp 2D2 (Rattus norvegicus, UniProt P10634); experiment: Recombinant rat Cyp phenotype profiling, 2D2; type: in vitro ADME; settings: 60 min
# T2 construct: purchased BD Gentest; host or cells: baculovirus infected insect cells
# Procedure: as §1, §2
# rat Cyp 2C6 = target: T3, rat Cyp 2C6 (Rattus norvegicus, UniProt P05178); experiment: Recombinant rat Cyp phenotype profiling, 2C6; type: in vitro ADME; settings: 60 min
# T3 construct: purchased BD Gentest; host or cells: baculovirus infected insect cells
# Procedure: as §1, §2
# Cyp1a1 = Cyp1a1 mRNA in rat liver after 5 days of dosing (microarray, RT-PCR); type: in vivo
# Procedure: All animal experiments were conducted in accordance with the Guiding Principles in the Use of Animals in Toxicology (http://www.toxicology.org/ai/air/air6.asp) and were approved by Abbott's Institutional Animal Care and Use Committee (IACUC). Male Sprague-Dawley rats [Crl:CD®(SD)IGS BR], weighing ~250 g at study initiation were obtained from Charles River Laboratories, Inc. (Wilmington, MA). Rats were housed singly in ventilated, stainless steel, wire-bottom hanging cages and fed non-certified Rodent Chow (Harlan Labs, Madison, WI), and water ad libitum and acclimated for at least 5 days after arrival. […] Serum clinical chemistry parameters were quantified using an Aeroset Clinical Chemistry Analyzer (Abbott Laboratories, Abbott Park, IL) and included alanine amino transferase (ALT), aspartate amino transferase (AST), gamma glutamyltransferase (GGT), and alkaline phosphatase (ALP) activities.
# Frozen liver or jejunum were immediately added to 4 ml of TRIzol reagent (Invitrogen Life Technologies) and homogenized using a Polytron 300D homogenizer (Brinkman Instruments, Westbury, NY). […] Nucleic acid concentration was determined by OD 260 nm (Smart-Spec, Bio-Rad Laboratories, Hercules, CA), and RNA integrity was evaluated using an Agilent 2100 bioanalyzer (Agilent Technologies, Foster City, CA). […]
# T3 sequence (P05178 whole entry): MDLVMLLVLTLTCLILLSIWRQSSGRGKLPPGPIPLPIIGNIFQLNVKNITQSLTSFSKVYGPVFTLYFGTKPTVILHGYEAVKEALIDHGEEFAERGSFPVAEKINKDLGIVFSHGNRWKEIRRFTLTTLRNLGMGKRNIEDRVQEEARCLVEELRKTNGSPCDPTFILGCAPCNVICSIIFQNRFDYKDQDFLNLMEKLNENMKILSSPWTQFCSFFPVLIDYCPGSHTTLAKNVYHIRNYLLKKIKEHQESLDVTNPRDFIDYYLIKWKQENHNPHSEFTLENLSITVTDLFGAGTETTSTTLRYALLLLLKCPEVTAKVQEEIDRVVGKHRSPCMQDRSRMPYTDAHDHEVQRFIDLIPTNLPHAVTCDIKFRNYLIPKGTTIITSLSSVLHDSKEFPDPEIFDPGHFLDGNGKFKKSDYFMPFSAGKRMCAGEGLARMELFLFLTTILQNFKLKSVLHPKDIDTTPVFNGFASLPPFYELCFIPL
# T1 sequence (P05183 whole entry): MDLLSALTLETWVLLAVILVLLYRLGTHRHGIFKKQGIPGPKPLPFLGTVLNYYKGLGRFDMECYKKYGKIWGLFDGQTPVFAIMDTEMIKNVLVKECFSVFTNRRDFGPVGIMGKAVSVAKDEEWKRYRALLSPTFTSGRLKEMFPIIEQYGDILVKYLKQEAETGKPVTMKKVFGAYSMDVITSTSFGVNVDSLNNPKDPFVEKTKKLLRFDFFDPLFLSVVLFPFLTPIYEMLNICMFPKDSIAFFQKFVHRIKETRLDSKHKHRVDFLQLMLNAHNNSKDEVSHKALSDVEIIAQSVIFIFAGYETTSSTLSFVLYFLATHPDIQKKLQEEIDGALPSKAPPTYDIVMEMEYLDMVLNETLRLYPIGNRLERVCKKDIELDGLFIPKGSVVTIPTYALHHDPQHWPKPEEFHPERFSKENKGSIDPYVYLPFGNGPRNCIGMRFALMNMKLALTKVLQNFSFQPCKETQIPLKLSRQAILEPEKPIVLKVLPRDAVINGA
# T2 sequence (P10634 whole entry): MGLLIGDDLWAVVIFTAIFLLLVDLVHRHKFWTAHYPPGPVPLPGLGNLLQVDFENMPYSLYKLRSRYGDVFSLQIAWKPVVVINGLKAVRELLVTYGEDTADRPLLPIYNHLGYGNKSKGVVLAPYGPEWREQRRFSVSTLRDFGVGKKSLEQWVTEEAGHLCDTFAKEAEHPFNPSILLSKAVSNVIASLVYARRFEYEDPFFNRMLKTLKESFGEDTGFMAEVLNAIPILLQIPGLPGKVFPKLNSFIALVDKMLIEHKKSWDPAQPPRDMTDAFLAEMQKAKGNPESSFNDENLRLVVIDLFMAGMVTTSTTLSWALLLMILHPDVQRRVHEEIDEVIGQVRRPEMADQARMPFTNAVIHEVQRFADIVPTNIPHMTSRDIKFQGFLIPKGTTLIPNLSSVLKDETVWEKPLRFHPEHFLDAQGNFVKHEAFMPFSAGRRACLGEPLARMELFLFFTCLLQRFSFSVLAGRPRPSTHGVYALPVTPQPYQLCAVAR
compound,measurement,setting,value
"N#Cc1cccc(-c2noc(-c3cccnc3)n2)c1 [A-998679, 3-(5-pyridin-3-yl-1,2,4-oxadiazol-3-yl) benzonitrile]",% parent remaining,"rat Cyp 3A2; recombinant rat Cyp 3A2, 0.10 μM",100%
same,% parent remaining,"rat Cyp 3A2; recombinant rat Cyp 3A2, 0.21 μM",94.2%
same,% parent remaining,"rat Cyp 2D2; recombinant rat Cyp 2D2, 0.10 μM",100%
same,% parent remaining,"rat Cyp 2D2; recombinant rat Cyp 2D2, 0.21 μM",98.1%
same,% parent remaining,"rat Cyp 2C6; recombinant rat Cyp 2C6, 0.10 μM",91.0%
same,% parent remaining,"rat Cyp 2C6; recombinant rat Cyp 2C6, 0.21 μM",88.8%
same,Cyp1a1 mRNA increase in rat liver (microarray),"Cyp1a1; 5 days of dosing, in at least one animal starting at the 100 mg/kg dose",10–100 fold
same,Cyp1a1 mRNA expression in rat liver (RT-PCR),"Cyp1a1; 5 days, all doses (30, 100, 200 mg/kg/day)",strongly induced
